Article PMC12769565, “Design, synthesis and biological activity of glycoconjugated ADAMTS5 exosite inhibitors: applications in osteoarthritis and ovarian cancer models” (Scientific Reports, 2025)
Values after ≈ are worked out from the molar mass of the structure shown.

Columns and labels:
A2780-Rab25 = experiment: OC cell proliferation (DRAQ5 cell numbers); type: cell-based; conditions: 24 h
Procedure: A2780-Rab25 (3,000 cells per well) were seeded in a 96-well plate and incubated with compound 2 (10 µM and 50 µM) or DMSO control for 24 h. Cells were fixed with 4% paraformaldehyde and stained with 5 µM DRAQ5 in PBS for 1 h at room temperature with gentle rocking. Cells were washed twice with PBS for 30 min and kept in PBS for imaging. […] was detected by the 700 nm channel (200 μm resolution) of a Licor Odyssey Sa instrument. The signal intensity (total intensity minus total background) of each well was quantified in Image Studio Lite software.

[1] = Solubility determination in PBS by UV-Vis absorbance at 284 nm; type: physicochemical; conditions: PBS buffer, aqueous buffer, kinetic from dmso stock, pH 7.4, room temperature, read-out: upper solubility limit
Procedure: The solubility of compounds 4b and 2 was assessed in PBS at pH 7.4 and room temperature. Stock solutions of the compounds (10 mM in DMSO) were diluted in PBS buffer to achieve final concentrations between 1,000 µM − 12.5 µM. Two-hundred microliters of the proper compound solutions in PBS buffer were added in a 96-well plate, and the absorbance was measured at 284 nm using a SPECTROstar Nano UV-Vis spectrophotometer (220–1,000 nm, Ortenberg, Germany). Analyses were performed in triplicate, and the mean value was calculated for each sample.

[2] = test system: human OA cartilage explants; experiment: Cell viability MTS assay; type: cell-based; conditions: 100 µM; 72 h; vs DMSO control
Procedure: Human OA cartilage was obtained from Clatterbridge Hospital, Wirral, UK, following total knee arthroplasty procedures with informed patient consent in full compliance with national and institutional ethical requirements, the United Kingdom Human Tissue Act, and the Declaration of Helsinki (REC 18/WA/0344). Explants (~ 36 mm^3, ~ 40 mg wet volume/weight) from each of 3 donors were placed in one well of a 48-well plate and allowed to rest for 24 h in 1 ml of DMEM containing 10% FBS before use. The medium was replaced, and the cartilage was rested for a further 24 h in 1 ml DMEM at 37 °C before assays.
Cell viability was assessed using CellTiter® 96 Aqueous One Solution Cell Proliferation Assay (Promega, G3582) following the manufacturer’s protocol. The assay is based on the reduction of [3-(4,5-dimethylthiazol-2-yl)-5-(3-carboxymethoxyphenyl)-2-(4-sulfophenyl)-2 H-tetrazolium] (MTS) and phenazine ethosulfate into formazan. Compounds 2 and 4b, GM6001 (Merck, 364206) (10–100 µM), or DMSO control were incubated in 48-well Nunc™ plates (Thermo Fisher Scientific,150687) with HEK293T cells, human non-OA chondrocytes, porcine cartilage explants, or human OA cartilage explants for 72 h. At least 3 independent experiments were carried out with 3 technical replicates each. […] Absorbance at 490 nm was measured on a SpectraMax i3x Multi-Mode Platform (Molecular Devices). […]

ADAMTS5 = molecular target: T1, ADAMTS5 (Homo sapiens, UniProt Q9UNA0); experiment: Aggrecanase assay (bovine aggrecan, anti-ARGSV neoepitope immunoblot); type: biochemical
T1 construct: Human recombinant full-length FLAG-tagged ADAMTS4 and ADAMTS5 were expressed in HEK293T cells; FLAG; made in house; host or cells: HEK293T cells
T1 sequence (Q9UNA0 262-930): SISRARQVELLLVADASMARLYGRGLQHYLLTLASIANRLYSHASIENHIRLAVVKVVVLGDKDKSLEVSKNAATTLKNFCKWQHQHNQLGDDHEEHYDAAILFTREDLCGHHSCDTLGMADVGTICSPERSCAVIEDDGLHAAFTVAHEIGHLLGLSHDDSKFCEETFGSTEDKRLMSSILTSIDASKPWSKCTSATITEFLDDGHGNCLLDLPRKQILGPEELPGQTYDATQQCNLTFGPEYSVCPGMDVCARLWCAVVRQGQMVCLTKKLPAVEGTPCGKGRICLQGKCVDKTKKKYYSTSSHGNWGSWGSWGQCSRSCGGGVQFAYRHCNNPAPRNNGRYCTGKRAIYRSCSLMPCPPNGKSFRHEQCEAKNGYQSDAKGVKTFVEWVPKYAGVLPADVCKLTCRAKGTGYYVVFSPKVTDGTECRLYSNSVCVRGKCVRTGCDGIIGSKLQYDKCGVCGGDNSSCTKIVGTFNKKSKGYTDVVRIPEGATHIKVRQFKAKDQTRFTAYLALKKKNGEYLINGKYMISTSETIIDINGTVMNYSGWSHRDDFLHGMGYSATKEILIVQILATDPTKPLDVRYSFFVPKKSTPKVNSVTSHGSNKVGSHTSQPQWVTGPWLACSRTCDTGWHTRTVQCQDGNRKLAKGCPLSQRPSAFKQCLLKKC
Procedure: Aggrecanase assays were carried out as before. ADAMTS5 (1 nM) was incubated with compounds 2 and 3 or DMSO for 2 h at 37 °C in TNC-B buffer before addition of bovine articular aggrecan (UniProt ID: P13608, 270 nM) (Merck, A1960). After 2 h digestion at 37 °C, the reactions were stopped with ethylenediaminetetraacetic acid and the samples incubated with 0.1 U/ml of chondroitinase ABC (AMS Biotechnology, Abingdon, UK) and keratanase (endo-beta galactosidase, Merck, G6920) in deglycosylation buffer (50 mM sodium acetate, 25 mM Tris HCl pH 8.0) for 16 h at 37 °C to remove GAG chains.
Samples were separated by SDS-PAGE under reducing conditions (5% β-mercaptoethanol) on BOLT, 4–12%, Bis-Tris Gels (Invitrogen) in MES Running Buffer (NuPAGE). Proteins were transferred onto a nitrocellulose membrane using Trans-Blot Turbo™ Transfer System (BioRad), at 25 V, 2.5 A for 30 min. Membranes were blocked with 3% BSA/PBS for 1 h at room temperature. Aggrecan fragments generated by ADAMTS cleavage at E^392-A^393[8] or E^1953-A^1954[68] were detected using mouse monoclonal anti-ARGSV antibody (BC3, Life Technologies, MA3-16888, 4 µg/ml) or polyclonal anti-AGEG neoepitope antibody (serum, 1:200 dilution)[12],[33], respectively, followed by the appropriate horseradish peroxidase (HRP)-conjugated secondary antibodies (polyclonal Goat Anti-Mouse P0447, 0.1 ng/µl and polyclonal Goat Anti-Rabbit, P0448, 0.03 ng/µl, both from Agilent Technologies LDA UK Ltd). All antibodies were diluted in 0.5% bovine serum albumin (BSA)/PBS. Washes between each step were carried out in triplicate, for 15 min each, with PBS-Tween (0.1%). Following addition of the chemiluminescent HRP substrate (Millipore, WBKL30500) membranes were imaged using Bio-Rad Chemidoc Touch Imaging System. Analysis was carried out using BioRad ImageLab software (version 5.2.1) using sequential exposures to avoid saturation artifacts. Figures for unprocessed blots are included in Supplementary information Fig. S4 and Fig. S5 with highlighted regions (in red boxes) corresponding to the data reported in the main manuscript figures.

solubility [1]: 300 µM (≈ 238 µg/mL)
inhibition at 10 µM (ADAMTS5; 10 µM): 53%
inhibition at 100 µM (ADAMTS5; 100 µM): 80%
SMILES: CCC(C)N(Cc1cn(CCCO[C@@H]2O[C@H](CO)[C@@H](O[C@@H]3O[C@H](CO)[C@H](O)[C@H](O)[C@H]3O)[C@H](O)[C@H]2NC(C)=O)nn1)S(=O)(=O)c1ccc(-c2ccccc2)cc1 (stereo partly drawn) [compound 2, N-((2R,3R,4R,5 S,6R)-2-(3-(4-((N-(sec-butyl)-[1,1’-biphenyl]-4-sulfonamido)methyl)-1H-1,2,3-triazol-1-yl)propoxy)-4-hydroxy-6-(hydroxymethyl)-5-(((2 S,3R,4 S,5R,6R)-3,4,5-trihydroxy-6-(hydroxymethyl)tetrahydro-2 H-pyran-2-yl)oxy)tetrahydro-2 H-pyran-3-yl)acetamide]
A2780-Rab25 cell numbers compared to DMSO control (A2780-Rab25; 10 µM): did not detect any significant difference
A2780-Rab25 cell numbers compared to DMSO control (A2780-Rab25; 50 µM): did not detect any significant difference
effect on cell viability [2]: no effect on cell viability was observed
